Data taken from patent publication US20240382544A1, “COMPOSITION FOR ANTI-OBESITY AND PREVENTING OR TREATING MUSCLE LOSS, CONTAINING CATECHIN GLYCOSIDE EXTRACT DERIVED FROM PLANT IN GENUS ULMUS AS ACTIVE INGREDIENT” (DR. OREGONIN INC., priority 2022, published 2024).
Entries after “also recorded” stand apart in the source; their conditions may differ.

Tested on: 3T3-L1 cells
Experiment: Adipocyte differentiation (fat accumulation), Oil Red O staining
Assay type: cell-based, mouse
Protocol: 3T3-L1 cells, which are mouse-derived preadipocytes, were purchased from Korean Cell Line Bank. The 3T3-L1 cells were cultured using an DMEM medium (Welgene) supplemented with 10% bovine calf serum (BCF), 100 units/mL penicillin and 100 μg/mL streptomycin (complete DMEM medium) in a humidified CO2 incubator (5% CO2/95% air) at 37° C. When the cells filled about 80% of the culture dish, the cell monolayer was washed with phosphate-buffered saline (PBS, pH 7.4) and the cells were detached by adding trypsin-2.65 mM EDTA. Then, the cells were subcultured while replacing the medium every other day.
3T3-L1 cells were seeded onto a 24-well plate at 1×10^5 cells/well. When the cells reached confluence, differentiation into adipocytes was induced by culturing the cells while replacing the medium sequentially with three differentiation media (DM). That is to say, differentiation was induced for 2 days by replacing the medium with a differentiation medium wherein DMI (1 μM dexamethasone, 0.5 mM 3-isobutyl-1-methylxanthine (IBMX) and 5 μg/mL insulin) was added to a DMEM medium containing 10% FBS. Then, differentiation was induced again for 2 days by replacing the medium with a fresh differentiation medium wherein 5 μg/mL insulin was added to a DMEM medium containing 10% FBS. Then, differentiation into adipocytes was induced by maintaining the cells for 2 days in a DMEM medium containing 10% FBS. […]

`OCC1(O)CO[C@@H](Oc2cc(O)c3c(c2)OC(c2ccc(O)c(O)c2)[C@@H](O)C3)C1O` (stereo partly drawn) [catechin 7-O-β-D-apiofuranoside] was tested, and the “adipocyte differentiation-inhibiting ability (in words)” value (3T3-L1, concentration dependence) was “statistically significant adipocyte differentiation-inhibiting ability in a concentration-dependent manner; also recorded: inhibits the differentiation of adipocytes in a concentration-dependent manner with statistical significance” and the inhibition at 20 µg/mL (Mus musculus, 20 μg/mL (highest concentration tested), 3T3-L1, Oil Red O, read-out: adipocyte differentiation-inhibiting ability) was ≥ 40%.
